The test system of assay [1] is SF-295. Put plainly: Antiproliferative activity against human SF-295 cells assessed as cell growth inhibition at 10 uM by SRB assay relative to control. Type of assay: functional.
Assay [2] deals with SNB-75. As to the kind of experiment: Antiproliferative activity against human SNB-75 cells assessed as cell growth inhibition at 10 uM by SRB assay relative to control. Type of assay: functional. A general note: In SRB staining, fixed cells bind dye roughly in proportion to their protein.
In assay [3] the test system is HL-60. Put plainly: Antiproliferative activity against human HL-60 cells assessed as cell growth inhibition at 10 uM by SRB assay relative to control. Type of assay: functional.
Another assay concerns HOP-92. As to the kind of experiment: Antiproliferative activity against human HOP-92 cells assessed as cell growth inhibition at 10 uM by SRB assay. The format is functional, cell-based.
The test system of the next assay is Hs-578T. Put plainly: Antiproliferative activity against human Hs-578T cells assessed as inhibition of cell growth at 10 uM by SRB assay. The format is functional, cell-based.
In the next assay the test system is NCI-H226. Put plainly: Antiproliferative activity against human NCI-H226 cells assessed as cell growth inhibition at 10 uM by SRB assay. Type of assay: functional.
Assay [4] deals with MOLT-4. Put plainly: Antiproliferative activity against human MOLT-4 cells assessed as cell growth inhibition at 10 uM by SRB assay relative to control. The format is functional.
The subject of another assay is NCI-H23. As to the kind of experiment: Antiproliferative activity against human NCI-H23 cells assessed as cell growth inhibition at 10 uM by SRB assay. The format is functional.
In assay [5] the test system is CCRF-CEM. Put plainly: Antiproliferative activity against human CCRF-CEM cells assessed as cell growth inhibition at 10 uM by SRB assay relative to control. Type of assay: functional.
Assay [6] relates to K562. As to the kind of experiment: Antiproliferative activity against human K562 cells assessed as cell growth inhibition at 10 uM by SRB assay relative to control. The format is functional.
A further assay has as its system UO-31. Put plainly: Antiproliferative activity against human UO-31 cells assessed as inhibition of cell growth at 10 uM by SRB assay relative to control. The format is functional.
The subject of assay [7] is RPMI-8226. Put plainly: Antiproliferative activity against human RPMI-8226 cells assessed as cell growth inhibition at 10 uM by SRB assay relative to control. Type of assay: functional.
The test system of assay [8] is SR. As to the kind of experiment: Antiproliferative activity against human SR cells assessed as cell growth inhibition at 10 uM by SRB assay relative to control. Type of assay: functional.
Another assay has as its system NCI-H522. As to the kind of experiment: Antiproliferative activity against human NCI-H522 cells assessed as cell growth inhibition at 10 uM by SRB assay. Type of assay: functional, cell-based.
Assay [9] has as its system SF-295. Put plainly: Antiproliferative activity against human SF-295 cells assessed as cell growth inhibition at 10 uM by SRB assay. Type of assay: functional, cell-based.
The next assay has as its system SK-MEL-2. As to the kind of experiment: Antiproliferative activity against human SK-MEL-2 cells assessed as cell growth inhibition at 10 uM by SRB assay relative to control. The format is functional. The conditions noted are these: Homo sapiens, SK-MEL-2, dose 10 µM.
The subject of the next assay is EKVX. Put plainly: Antiproliferative activity against human EKVX cells assessed as cell growth inhibition at 10 uM by SRB assay. The format is functional.
Another assay concerns U-251. Put plainly: Antiproliferative activity against human U-251 cells assessed as cell growth inhibition at 10 uM by SRB assay. Type of assay: functional, cell-based.
A further assay deals with SF-268. Put plainly: Antiproliferative activity against human SF-268 cells assessed as cell growth inhibition at 10 uM by SRB assay. Type of assay: functional, cell-based.
Another assay deals with SNB-19. Put plainly: Antiproliferative activity against human SNB-19 cells assessed as cell growth inhibition at 10 uM by SRB assay. The format is functional, cell-based.
The test system of the next assay is SF-539. As to the kind of experiment: Antiproliferative activity against human SF-539 cells assessed as cell growth inhibition at 10 uM by SRB assay. The format is functional, cell-based.
For assay [10], the system named is SNB-75. As to the kind of experiment: Antiproliferative activity against human SNB-75 cells assessed as cell growth inhibition at 10 uM by SRB assay. Type of assay: functional, cell-based.
The test system of a further assay is SK-OV-3. Put plainly: Antiproliferative activity against human SK-OV-3 cells assessed as inhibition of cell growth at 10 uM by SRB assay relative to control. The format is functional.
In a further assay the test system is OVCAR-4. Put plainly: Antiproliferative activity against human OVCAR-4 cells assessed as cell growth inhibition at 10 uM by SRB assay relative to control. The format is functional.
The test system of assay [11] is CCRF-CEM. As to the kind of experiment: Antiproliferative activity against human CCRF-CEM cells assessed as cell growth inhibition at 10 uM by SRB assay. Type of assay: functional, cell-based.
In assay [12] the test system is MOLT-4. Put plainly: Antiproliferative activity against human MOLT-4 cells assessed as cell growth inhibition at 10 uM by SRB assay. The format is functional, cell-based.
The test system of assay [13] is HL-60. Put plainly: Antiproliferative activity against human HL-60 cells assessed as cell growth inhibition at 10 uM by SRB assay. The format is functional, cell-based.
A further assay relates to T47D. As to the kind of experiment: Antiproliferative activity against estrogen receptor positive human T47D cells assessed as inhibition of cell growth at 10 uM by SRB assay relative to control. The format is functional.
Assay [14] has as its system RPMI-8226. As to the kind of experiment: Antiproliferative activity against human RPMI-8226 cells assessed as cell growth inhibition at 10 uM by SRB assay. The format is functional, cell-based.
Assay [15] concerns SR. Put plainly: Antiproliferative activity against human SR cells assessed as cell growth inhibition at 10 uM by SRB assay. The format is functional, cell-based.
Assay [16] deals with K562. Put plainly: Antiproliferative activity against human K562 cells assessed as cell growth inhibition at 10 uM by SRB assay. The format is functional, cell-based.
Assay [17] can be described thus: Antiproliferative activity against human colon cancer cells assessed as cell growth inhibition at 10 uM by SRB assay relative to control. Type of assay: functional. The settings on record: Colon carcinoma cell.
The next assay concerns Prostatic carcinoma cell. As to the kind of experiment: Antiproliferative activity against human prostatic carcinoma cells assessed as cell growth inhibition at 10 uM by SRB assay relative to control. Type of assay: functional.
A short description of assay [18]: Antiproliferative activity against human hematologic cancer cells assessed as cell growth inhibition at 10 uM by SRB assay relative to control. The format is functional.

Activity calls are given as the source filed them. No cut-off for these calls is given here.

As to `Cn1nnc2c(C(N)=O)ncn2c1=O` [TEMOZOLOMIDE], the values for the inhibition at 10 µM in the assay on SF-295 [1] and in the assay with SNB-75 [2] were 29.8% and 40.8%, respectively.

On to `COc1cc2oc(-c3ccc(NC(=O)c4ccc(C)cc4)cc3)cc(=O)c2c(OC)c1OC`, for which the inhibition – broadly, the relative decrease from the control value, in per cent – at 10 µM with HL-60 [3] is at most 42.6%; with NCI-H226 it was under 50%; in the assay with MOLT-4 [4], at most 42.6%; in the assay with NCI-H23 it was under 50%; in the assay with CCRF-CEM [5], at most 42.6%; in the assay with K562 [6], at most 42.6%. The inhibition at 10 µM is at most 42.6% with RPMI-8226 [7], at most 42.6% with SR [8], at most 46% in the assay with SK-MEL-2 and under 50% in the assay on EKVX. In addition, the inhibition result with HOP-92, in the assay on Hs-578T, in the assay with UO-31, with NCI-H522 and with SF-295 [9] was “Active” throughout.

Consider `COc1cc2oc(-c3ccc(NC(=O)c4cccc(Br)c4)cc3)cc(=O)c2c(O)c1OC`, for which the inhibition result in the assay on U-251, in the assay with SF-268, in the assay on SNB-19, with SF-539, in the assay on SF-295 [9] and in the assay with SNB-75 [10] was “inactive” in each case. Moreover, in the assay with RPMI-8226 [7], the inhibition at 10 µM stood at 82.6%.

Take `CC(=O)O[C@H]1C(=O)[C@@]2(C)[C@H]([C@H](OC(=O)c3ccccc3)[C@]3(O)C[C@H](OC(=O)[C@H](O)[C@@H](NC(=O)c4ccccc4)c4ccccc4)C(C)=C1C3(C)C)[C@]1(OC(C)=O)CO[C@@H]1C[C@@H]2O` [PACLITAXEL]: the inhibition at 10 µM with SK-OV-3 was determined as 57.1%; in the assay on OVCAR-4 it was 113%.

`COc1cc2oc(-c3cccc(NC(=O)c4cccc(Br)c4)c3)cc(=O)c2c(O)c1OC`: the inhibition result with U-251, in the assay with SF-268, with SNB-19, in the assay with SF-539, in the assay on SF-295 [9] and in the assay with SNB-75 [10] was “inactive” in each case. In the assay with RPMI-8226 [7], the inhibition at 10 µM was determined as 82.6%.

Turning to `COc1cc2oc(-c3cccc(NC(=O)c4ccc(F)cc4)c3)cc(=O)c2c(OC)c1OC`, the inhibition result with CCRF-CEM [11], in the assay on HOP-92, in the assay with Hs-578T, in the assay with MOLT-4 [12], with UO-31 and in the assay with HL-60 [13] was “Active” each time. The inhibition result with NCI-H522, in the assay with SF-295 [9], in the assay with RPMI-8226 [14], with SR [15] and with K562 [16] was “Active” in each case. Further, the inhibition at 10 µM was under 50% in the assay with NCI-H226; under 50% in the assay on NCI-H23; 51.3% with T47D; at most 46% in the assay with SK-MEL-2; under 50% with EKVX.

As to `COc1cc2oc(-c3cccc(NC(=O)c4cccc(Br)c4)c3)cc(=O)c2c(OC)c1OC`, the inhibition at 10 µM is over 50% in assay [17]; over 50% in the assay with Prostatic carcinoma cell; under 50% in the assay with NCI-H226; over 50% in assay [18]; under 50% in the assay with NCI-H23; 72.3% in the assay with T47D. Besides, the results for the inhibition at 10 µM with SK-MEL-2 and with EKVX were at most 46% and under 50%, respectively. Further, the inhibition result in the assay with CCRF-CEM [11], with HOP-92, in the assay on Hs-578T, in the assay on MOLT-4 [12], in the assay on UO-31 and with HL-60 [13] was “Active” in each case. Moreover, the inhibition entry with NCI-H522, with SF-295 [9], with RPMI-8226 [14], with SR [15] and in the assay with K562 [16] was “Active” each time.

The values are drawn from ChEMBL document CHEMBL5260845, “Flavone-based arylamides as potential anticancers: Design, synthesis and in vitro cell-based/cell-free evaluations” (2020).
